Experimental data published in PMC5939190, “The impact of O-glycan chemistry on the stability of intrinsically disordered proteins” (Chemical Science, 2018).
Residues, ends and D or L forms follow the SMILES beside them. No end group written: not given here. *: point of attachment. αMan = OC[C@H]1O[C@H](*)[C@@H](O)[C@@H](O)[C@@H]1O; X2 = OC[C@H]1O[C@H](*)[C@H](O)[C@@H](O)[C@@H]1O; X1 = OC[C@H]1O[C@H](*)[C@H](O)[C@@H](O)[C@H]1O

Legend:
[1] = target: T1, thermolysin (Bacillus thermoproteolyticus, UniProt P00800); assay: Thermolysin digestion of linker variants (half-life to thermolysin degradation, MALDI-TOF MS); assay type: in vitro ADME; details: for half-life: thermolysin in digestion buffer, average ± spread of three independent trials, quantitative MALDI-TOF MS; for half-life / Half-life to thermolysin degradation, Trial 1 / Half-life to thermolysin degradation, Trial 2 / Half-life to thermolysin degradation, Trial 3: thermolysin 1 µg/µL (25 µL) added to linker 2 µg/µL (25 µL), 50 mM Tris·HCl, 0.5 mM CaCl2, pH 8.0, 37 °C, aliquots 0-420 min; for half-life / Half-life to thermolysin degradation, Trial 2 / Half-life to thermolysin degradation, Trial 3: first-order exponential decay fit; for Half-life to thermolysin degradation, Trial 1: trial 1 of three independent trials, first-order exponential decay fit of full-length linker; for Half-life to thermolysin degradation, Trial 1 / Half-life to thermolysin degradation, Trial 2 / Half-life to thermolysin degradation, Trial 3: quantitative MALDI-TOF MS with internal standard; for Half-life to thermolysin degradation, Trial 2: trial 2 of three independent trials; for Half-life to thermolysin degradation, Trial 3: trial 3 of three independent trials
T1 sequence (P00800 233-548): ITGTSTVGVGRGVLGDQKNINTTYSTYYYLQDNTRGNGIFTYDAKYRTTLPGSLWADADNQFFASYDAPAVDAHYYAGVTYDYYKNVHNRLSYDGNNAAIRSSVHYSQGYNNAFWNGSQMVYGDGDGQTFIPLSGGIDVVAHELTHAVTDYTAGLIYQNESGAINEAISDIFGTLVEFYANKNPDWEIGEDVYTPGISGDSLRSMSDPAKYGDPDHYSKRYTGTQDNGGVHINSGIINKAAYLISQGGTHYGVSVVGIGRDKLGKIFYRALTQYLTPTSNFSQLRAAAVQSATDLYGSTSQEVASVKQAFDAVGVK
Source text: O-Mannosylation is strongly preferred for proteolysis protection of a model fungal IDP. To investigate how glycan identity affects IDP proteolytic stability, we employed the naturally O-mannosylated linker from the Trichoderma reesei glycoside hydrolase family 7 cellobiohydrolase, TrCel7A, as a model.[10] This enzyme is one of the most important industrial cellulases and its linker is a well-studied O-mannosylated IDP.[11]–[14] The α-anomeric configuration was chosen since it is the only type reported so far in reducing terminal mannose residues of O-mannosylated proteins from fungi and yeasts.[8] We used […] glycopeptide synthesis[12],[15],[16] to produce four variants (Fig. 1), including the non-glycosylated linker, and measured the half-life to thermolysin degradation with MALDI-TOF MS (Fig. S1–S4 ^†).[15]–[19] […]
1.1. Experimental material and equipm ent
All commercial reagents and solvents were used as received. All LC-MS analyses were performed using a Waters Acquity TM Ultra Performance LC system equipped with Acquity UPLC® BEH 300 C4, 1.7µm, 2.1 x 100 mm column at flow rates of 0.3 mL/min. The mobile phase for LC -MS analysis was a mixture of H2O (0.1% formic acid, v /v, A) and acetonitrile (0.1% formic acid, v/v, B). […]
Mass spectrometric analysis done with a Waters SYNAPT G2-S LC-MS system was us ed to confirm the identity and homogeneity of the synthetic peptides. MALDI-TOF mas s spectrometr ic analysis done with an AB/Sciex Voyager DE-STR system was used to determine the proteolytic stability (half-life to thermolysin degradation) of the synthetic peptides (Fig. S1-S4). […]
1.3. General procedure for the thermolysin digestion of linker variants The thermolysin digestions were performed following previously described procedures.2 The digestion s of glycosylated linkers were carried out at 37 °C in 25 µL of digestion buffer (50 mM Tris·HCl buffer, 0.5 mM CaCl2, pH 8.0) with an initial linker concentration of 2 µg/µL. 25 µL of thermolysin (1 µg/µL in the digestion buffer) was added to linker solution; 1 µL aliquots were taken at specific time intervals (0, […]
µL of acetonitrile/H2O/AcOH (20/20/1, v/v) and 3 µL of standard solution [0.17 µg/µL non-glycosylated linker in acetonitrile/H2O/AcOH (20/20/1, v/v)]. Each sample was analyzed by quantitative MALDI-TOF MS to calculate the change in concentration of glycosylated linkers with time. The digestion rate was determined by monitoring and fitting data to the first-order exponential decay of the full-length glycosylated linkers over time. Digestion and analysis of non-glycosylat ed linker was done exactly a s described above for glycosylated linkers except that the Lman was used as the internal standard. All the digestion processes were repeated for three independent trials.
1.4. Temperature replica exchange simulations
Model syst ems. This work compares the dynamical and structural behavior of four variants of the Cel7A linker from Trichoderma reesei (TrCel7A). This set includes the non-glycosylated linker and the linker homogeneously decorated with O-linked α-mannosyl, α-glucosyl, and α-galactosyl moieties (Fig. S9A).
Complementary simulations and analyses were also performed with the linker decorated with longer glycans comprising mannobiosyl and galactobiosyl moieties, as well as with the putative natural decoration proposed by Harrison et al.3 (Fig. S9B) . A set of four variants of the “PT linker” was also studied, including the non -glycosylated linker and the variants with the same three glycans (Fig. S9C).
Finally, we also performed simulations of tripeptides with a single site of glyco sylation, resulting in the […]

Compound	half-life [1] [min]	Half-life to thermolysin degradation, Trial 1 [1] [min]	Half-life to thermolysin degradation, Trial 2 [1] [min]	Half-life to thermolysin degradation, Trial 3 [1] [min]	enhancement of protection against proteolysis relative to non-glycosylated parent IDP [fold]	Improvement of proteolytic stability over the non-glycosylated linker LNG ([1]; ratio of half-lives to thermolysin degradation, relative to LNG) [fold]	Proteolysis protection over the O-galactosylated linker (Lgal) ([1]; ratio of half-lives to thermolysin degradation, relative to Lgal) [fold]	Proteolysis protection over the O-glucosylated linker (Lglc) ([1]; ratio of half-lives to thermolysin degradation, relative to Lglc) [fold]
GNPPGGNPPGTTTTRRPATTTGSSPGP-OH [LNG]	1.5 ± 0.2	1.6	1.5	1.2				
C[C@H](NC(=O)[C@@H]1CCCN1C(=O)[C@H](CCCNC(=N)N)NC(=O)[C@H](CCCNC(=N)N)NC(=O)[C@@H](NC(=O)[C@@H](NC(=O)[C@@H](NC(=O)[C@@H](NC(=O)CNC(=O)[C@@H]1CCCN1C(=O)[C@@H]1CCCN1C(=O)[C@H](CC(N)=O)NC(=O)CNC(=O)CNC(=O)[C@@H]1CCCN1C(=O)[C@@H]1CCCN1C(=O)[C@H](CC(N)=O)NC(=O)CN)[C@@H](C)O[C@H]1O[C@H](CO)[C@H](O)[C@H](O)[C@H]1O)[C@@H](C)O[C@H]1O[C@H](CO)[C@H](O)[C@H](O)[C@H]1O)[C@@H](C)O[C@H]1O[C@H](CO)[C@H](O)[C@H](O)[C@H]1O)[C@@H](C)O[C@H]1O[C@H](CO)[C@H](O)[C@H](O)[C@H]1O)C(=O)N[C@H](C(=O)N[C@H](C(=O)N[C@H](C(=O)NCC(=O)N[C@@H](CO[C@H]1O[C@H](CO)[C@H](O)[C@H](O)[C@H]1O)C(=O)N[C@@H](CO[C@H]1O[C@H](CO)[C@H](O)[C@H](O)[C@H]1O)C(=O)N1CCC[C@H]1C(=O)NCC(=O)N1CCC[C@H]1C(=O)O)[C@@H](C)O[C@H]1O[C@H](CO)[C@H](O)[C@H](O)[C@H]1O)[C@@H](C)O[C@H]1O[C@H](CO)[C@H](O)[C@H](O)[C@H]1O)[C@@H](C)O[C@H]1O[C@H](CO)[C@H](O)[C@H](O)[C@H]1O [Lgal] (H-GNPPGGNPPGT(X1)T(X1)T(X1)T(X1)RRPAT(X1)T(X1)T(X1)GS(X1)S(X1)PGP-OH; N-terminus and C-terminus assumed)	9.8 ± 2	8.5	8.8	12.1	10			
C[C@H](NC(=O)[C@@H]1CCCN1C(=O)[C@H](CCCNC(=N)N)NC(=O)[C@H](CCCNC(=N)N)NC(=O)[C@@H](NC(=O)[C@@H](NC(=O)[C@@H](NC(=O)[C@@H](NC(=O)CNC(=O)[C@@H]1CCCN1C(=O)[C@@H]1CCCN1C(=O)[C@H](CC(N)=O)NC(=O)CNC(=O)CNC(=O)[C@@H]1CCCN1C(=O)[C@@H]1CCCN1C(=O)[C@H](CC(N)=O)NC(=O)CN)[C@@H](C)O[C@H]1O[C@H](CO)[C@@H](O)[C@H](O)[C@@H]1O)[C@@H](C)O[C@H]1O[C@H](CO)[C@@H](O)[C@H](O)[C@@H]1O)[C@@H](C)O[C@H]1O[C@H](CO)[C@@H](O)[C@H](O)[C@@H]1O)[C@@H](C)O[C@H]1O[C@H](CO)[C@@H](O)[C@H](O)[C@@H]1O)C(=O)N[C@H](C(=O)N[C@H](C(=O)N[C@H](C(=O)NCC(=O)N[C@@H](CO[C@H]1O[C@H](CO)[C@@H](O)[C@H](O)[C@@H]1O)C(=O)N[C@@H](CO[C@H]1O[C@H](CO)[C@@H](O)[C@H](O)[C@@H]1O)C(=O)N1CCC[C@H]1C(=O)NCC(=O)N1CCC[C@H]1C(=O)O)[C@@H](C)O[C@H]1O[C@H](CO)[C@@H](O)[C@H](O)[C@@H]1O)[C@@H](C)O[C@H]1O[C@H](CO)[C@@H](O)[C@H](O)[C@@H]1O)[C@@H](C)O[C@H]1O[C@H](CO)[C@@H](O)[C@H](O)[C@@H]1O [Lman] (H-GNPPGGNPPGT(αMan)T(αMan)T(αMan)T(αMan)RRPAT(αMan)T(αMan)T(αMan)GS(αMan)S(αMan)PGP-OH; N-terminus and C-terminus assumed)	164 ± 32.9	163.9	196.4	130.5		112	16	3
C[C@H](NC(=O)[C@@H]1CCCN1C(=O)[C@H](CCCNC(=N)N)NC(=O)[C@H](CCCNC(=N)N)NC(=O)[C@@H](NC(=O)[C@@H](NC(=O)[C@@H](NC(=O)[C@@H](NC(=O)CNC(=O)[C@@H]1CCCN1C(=O)[C@@H]1CCCN1C(=O)[C@H](CC(N)=O)NC(=O)CNC(=O)CNC(=O)[C@@H]1CCCN1C(=O)[C@@H]1CCCN1C(=O)[C@H](CC(N)=O)NC(=O)CN)[C@@H](C)O[C@H]1O[C@H](CO)[C@@H](O)[C@H](O)[C@H]1O)[C@@H](C)O[C@H]1O[C@H](CO)[C@@H](O)[C@H](O)[C@H]1O)[C@@H](C)O[C@H]1O[C@H](CO)[C@@H](O)[C@H](O)[C@H]1O)[C@@H](C)O[C@H]1O[C@H](CO)[C@@H](O)[C@H](O)[C@H]1O)C(=O)N[C@H](C(=O)N[C@H](C(=O)N[C@H](C(=O)NCC(=O)N[C@@H](CO[C@H]1O[C@H](CO)[C@@H](O)[C@H](O)[C@H]1O)C(=O)N[C@@H](CO[C@H]1O[C@H](CO)[C@@H](O)[C@H](O)[C@H]1O)C(=O)N1CCC[C@H]1C(=O)NCC(=O)N1CCC[C@H]1C(=O)O)[C@@H](C)O[C@H]1O[C@H](CO)[C@@H](O)[C@H](O)[C@H]1O)[C@@H](C)O[C@H]1O[C@H](CO)[C@@H](O)[C@H](O)[C@H]1O)[C@@H](C)O[C@H]1O[C@H](CO)[C@@H](O)[C@H](O)[C@H]1O [Lglc] (H-GNPPGGNPPGT(X2)T(X2)T(X2)T(X2)RRPAT(X2)T(X2)T(X2)GS(X2)S(X2)PGP-OH; N-terminus and C-terminus assumed)	53.7 ± 8.1	53.3	62.0	45.9				
